Experimental data from patent US4390528A, “Tuftsinyl-tuftsin” (Research Corporation, priority 1981, dated 1983).
Where a SMILES comes first, the peptide text is derived from it. Where no end group is shown, it is not given here.

Tests used:
[1] = tested on: Cloudman S-91 mouse melanoma cells; experiment: Antineoplastic activity against Cloudman S-91 mouse melanoma cells
[2] = tested on: blood polymorphonuclear leucocytes; experiment: Stimulation of phagocytosis and pinocytosis; assay type: cell-based, mammals
Excerpt: It also stimulates pinocytosis to the same extent allowing the cells to obtain nourishment from the surrounding medium.

316 mouse melanoma cells = experiment: Antineoplastic activity against 316 mouse melanoma cells
[3] = tested on: L1210 mouse leukemia cells; experiment: Antineoplastic activity against L1210 mouse leukemia cells
L1210 cells = experiment: Survival of DBA/2 mice injected intraperitoneally with L1210 cells; assay type: in vivo, mouse; settings: 25 DBA/2 mice, 20 μg intraperitoneally on days -7, -4 and 0; L1210 cells i.p. on day 0; control animals all dead by day 18
Method: In one experiment, 25 DBA/2 mice were injected each with 20 μg of the octapeptide intraperitoneally on days -7, -4 and 0. On the last mentioned day, L1210 cells were also injected intraperitoneally in experimental animals and solvent buffer alone in 25 control mice. The animals were observed daily and deaths recorded. The control animals were all dead by day 18, whereas the treated mice survived 32 days.

[4] = tested on: blood polymorphonuclear leucocytes; settings: especially neutrophilic leucocytes, in mammals, known for some time; cited from earlier work
[5] = tested on: therapeutic action of tuftsin; experiment: Inhibition of the therapeutic action of tuftsin; settings: tripeptide formed by degradation of administered tuftsin
Method: Thus, if large amounts of tuftsin are administered, for example, parenterally a rather complex series of reactions takes place. One is the desired therapeutically useful reaction, another is the formation of the inhibitory tripeptide and the third is the inhibitory reaction. The rate of the last two reactions is, unfortunately, so high that the administration of higher doses of the therapeutic agent is counterproductive. As more is administered, more of the inhibitory tripeptide is produced and less of the tuftsin is available to fulfill its therapeutic purpose.

## TKPRTKPR [Tuftsinyl-tuftsin, L-Threonyl-L-Lysyl-L-Prolyl-L-Arginyl-L-Threonyl-L-Lysyl-L-Prolyl-L-Arginine]
[1]
  antineoplastic activity: manifests antineoplastic activity
[2]
  stimulation of phagocytosis and pinocytosis: stimulator of phagocytosis and pinocytosis
316 mouse melanoma cells
  antineoplastic activity: manifests antineoplastic activity
[3]
  antineoplastic activity: manifests antineoplastic activity
L1210 cells
  survival of treated mice: 32 days

## L-threonyl-L-lysyl-L-propyl-L-arginine [tuftsin]
[4]
  stimulation of phagocytosis and destruction of bacteria by leucocytes: has the ability to stimulate phagocytosis

## N=C(N)NCCC[C@H](NC(=O)[C@@H]1CCCN1C(=O)[C@@H](N)CCCCN)C(=O)O [lysyl-prolyl-arginine] (H-Lys-Pro-Arg-OH)
[5]
  effect on the therapeutic action of tuftsin: acts as an inhibitor
